Drawing on patent publication US6048872A, “Arylethanolamine derivatives and their use as agonists of atypical beta-adrenoceptors” (Glaxo Wellcome Inc., priority 1995, dated 2000), this text covers EPMR and ED50 for three compounds.

Assay [1] addresses T1, human beta-3-adrenoceptor (Homo sapiens, UniProt P13945).
T1 construct: whole-cell cAMP accumulation, potency relative to isoprenaline
The assay can be described thus: cAMP accumulation in CHO cells transfected with the human beta-3-adrenoceptor (Method 1), potency relative to isoprenaline. The assay is classed as cell-based. The note with it: relative potency of test agonist compared to isoprenaline (EC50 ratio), H β3 CHO cells. The protocol:
[…] The cell lines may also be transfected with human beta-1- and beta-2- adrenoceptor in a similar manner to provide a method of determining the selectivity of the compounds of the invention at the three receptors.
General cell culture guidelines are observed (Fershney, R. A. (1987) Culture of animal cells: A manual of basic technique. Wiley-Liss, Inc., N.Y.). A standard cell culture incubator is used (37° C., 5% CO2 in air, 95% relative humidity). H β3 CHO cells are grown in 75 ml flasks in MEMα medium containing 9% FCS & 125 μg/ml G418. One confluent flask of cells is trypsinised and resuspended in 80 ml of culture medium; 1 ml of the cell suspension is added to each well of three 24-well plates. The plates are then incubated for 1 day.
The medium is aspirated from each well, and the well rinsed with phosphate-buffered saline (PBS, this is then aspirated). 1 ml of MEMα (no FCS or G418, 300μ M IBMX) is added to each well. Antagonists, if required, are added at this stage. The plate is then placed back in the incubator for 30 min. Drugs are then added to the wells (10 μl, 100x required final concentration), the plate gently swirled to mix the drugs, and the plate placed back in the incubator for 30 min. The medium is then aspirated from each well, the well rinsed with PBS, and 0.5 ml perchloric acid (6% v/v in distilled water, 2-5° C.). The plate is left on ice for 30 min. The perchloric acid (containing cAMP) is transferred to a clean 24-well plate and the acid neutralised by addition of saturated KHCO3 solution (200 μl) to each well. The plate is then swirled and frozen (-20° C.) until cAMP is assayed. cAMP is assayed using an enzyme-immunoassay kit (Amersham).
The relative potency of each test agonist (EPMR) is compared to isoprenaline as follows: [formula] wherein EC50 is the molar concentration of agonist which produces 50% of the maximum possible response for that agonist.
(Cyclic AMP is a second messenger, typically raised through Gs and lowered through Gi signalling.)

Assay [2] deals with indomethacin-induced antral damage. The assay can be described thus: Protective effect on indomethacin-induced gastric antral lesions in the re-fed rat (Method 2). The assay is classed as in vivo. As to conditions: po, rats dosed orally 30 minutes before indomethacin 60 mg/kg s.c., antral damage assessed at 6 hours post dose. The protocol: […] The procedure is based upon that described by H. Satoh et. al., Gastroenterology, 81, 719-725 (1981) in which the effect of compounds on indomethacin-induced gastric antral lesions in the re-fed rat is investigated. Indomethacin is an example of the class of compound known as non-steroidal anti-inflammatory drugs (NSAIDs), the use of which is frequently associated with gastrointestinal ulcers.
Food (but not water) is withheld from female random hooded rats (70-120 g) for 24 hours and then the rats are re-fed with Rat and Mouse No. 1 Maintenance Diet. After 1 hour of access to food, the rats are dosed orally with either the test compound or solvent (0.5% w/v methyl cellulose in water). […]
The rat's stomach is removed (with a small amount of duodenum attached), opened along the greater curvature and the contents removed by washing with 0.9% w/v sodium chloride solution (saline). The opened stomach is pinned out (mucosal surface uppermost) on a polystyrene mat and the area of damage assessed by placing a grid (composed of 1 mm squares) over the antral region. […] The total area of antral damage is then expressed as a percentage of the total surface area of the antrum.
The protective effect of the test compound on indomethacin-induced antral damage is calculated as a percentage using the following equation: [formula]

Counter-ions that a name gives are not always drawn.

By ED50 is commonly meant the dose that gives a 50% effect, or the effect in half of the subjects. Read a high ED50 as a need for a large dose.

T1 sequence (P13945 whole entry): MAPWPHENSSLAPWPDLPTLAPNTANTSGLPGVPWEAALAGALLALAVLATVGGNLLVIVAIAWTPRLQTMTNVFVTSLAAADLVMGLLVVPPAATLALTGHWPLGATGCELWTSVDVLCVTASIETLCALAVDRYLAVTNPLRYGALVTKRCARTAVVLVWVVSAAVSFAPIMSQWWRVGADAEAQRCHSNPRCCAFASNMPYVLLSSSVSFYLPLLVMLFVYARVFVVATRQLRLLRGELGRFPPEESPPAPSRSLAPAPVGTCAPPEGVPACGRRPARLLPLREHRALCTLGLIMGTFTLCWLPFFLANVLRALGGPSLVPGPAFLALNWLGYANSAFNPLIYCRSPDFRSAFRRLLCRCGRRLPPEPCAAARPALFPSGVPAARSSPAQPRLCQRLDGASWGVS

On to `C[C@H](CNc1ccc(CC(=O)O)c(F)c1F)NC[C@H](O)c1cccc(Cl)c1` [Example 7, (4-{2R-[2-(3-Chloro-phenyl)-2R-hydroxyl-ethylamino]-propylamino}-2,3-difluoro-phenyl)-acetic acid], for which the EPMR in assay [1] was 0.2. The compound also showed an ED50 in assay [2] of 3 µg/kg.
With `C[C@H](CNc1cc(F)c(OCC(=O)O)c(F)c1)NC[C@H](O)c1cccc(Cl)c1` [Example 15, (4-{2R-[2-(3-Chloro-phenyl)-2R-hydroxy-ethylamino]-propylamino}-2,6-difluoro-phenoxy)-acetic acid], the EPMR in assay [1] was 6.0.
Same read-out and setting: the same measure for `COc1cc(NC[C@@H](C)NC[C@H](O)c2cccc(Cl)c2)c(Cl)cc1CC(=O)O` [Example 8, (5-Chloro-4-{2R-[2-(3-chloro-phenyl)-2R-hydroxy-ethylaminol-propylamino}-2-methoxy-phenyl)-acetic acid dihydrochloride]: 0.4.
